Tests used:
[1] = Atanasiu et al., 1998; cited from earlier work
CP ferroxidase activity = CP ferroxidase activity after incubation with H2O2, without or with pyruvate; type: biochemical, bovine; conditions: FIG. 8; 5 mM pyruvate, CP 4 μM, 5 mM H2O2, 37° C.
Procedure: CP (4 μM) was incubated for different times (ranging from 0 to 12 h) in the presence of 5 mM H2O2, at 37° C., in PBS, without or with the addition of pyruvate (5 mM) as a protecting agent. At the end of incubation, catalase was added at a concentration of 0.1 mg/ml (84 U/ml) and incubation resumed at room temperature for 15 min in order to inactivate H2O2. Ferroxidase activity of CP was then measured by absorbence using a modified version of the method of Erel (1998). This method uses a chromogen to complex Fe^2+ ions that were not transformed to Fe^3+ions in the assay solution. The reaction mix contained 0.45M acetate buffer, pH 5.8, 60 μM Fe(NH4)2(SO4).6H2O, and either CP (sample), 25 mM EDTA (control corresponding to 100% iron oxidation) or PBS (control corresponding to 0% iron oxidation).
FIG. 8. Protection of CP ferroxidase activity by pyruvate in vitro. CP was incubated for various times, at 37° C., in the presence of 5 mM H2O2, without (No protection) or with 5 mM sodium pyruvate. The reaction was stopped by a 5 min incubation with an excess of catalase. Ferroxidase activity was then measured and expressed relatively (%) to that of a control CP sample not exposed to H2O2. The experiment was done three times, in duplicate determinations, and results are expressed as means±S.D.

P19 neurons [2] = experiment: Viability of P19 neurons exposed to XA/XAO prooxidant system (Alamar Blue); type: cell-based; conditions: FIG. 3
Procedure: (§1) Culture and neuronal differentiation of P19 embryonal carcinoma cells were done according to the procedures of Jeannotte et al. (1997) with the following modifications for microscale adaptation of cultures to 96-well plates: cell aggregates obtained at day 4 of the treatment of P19 cells with retinoic acid were trypsinized with 0.025% trypsin-1 mM EDTA in PBS and subjected to mechanical passages to obtain individual cells which were seeded in gelatin-precoated microwells at a density of 0.7-1×10^5 cells per well. The newly seeded cells (neurons) were cultured in supplemented Neurobasal medium (Neurobasal® containing 0.5 mM L-glutamine and 0.5% B27 supplement) until exposure to oxidative conditions at day 7. […]
(§2) P19 neurons were exposed to the following prooxidant systems: i) XA/XAO system (which produces •O2^− superoxide radicals and hydrogen peroxide H2O2, according to equation 1, shown below); ii) hydrogen peroxide H2O2; and iii) H2O2/Fe^+2 system (which generates •OH [hydroxyl radicals] via the Fenton reaction, equation 2). […] After they were incubated under oxidative conditions, neurons were analyzed for their residual viability by a fluorimetric assay using the Alamar Blue probe (see section 2.5). […]
(§3) After they were incubated under oxidative conditions, neurons were analyzed for their residual viability by a fluorimetric assay using the Alamar Blue probe. […]

P19 neurons [3] = experiment: Viability of P19 neurons exposed to H2O2 (Alamar Blue); type: cell-based; conditions: catalase 84 U; 5 mM hydrogen peroxide during 30 min
Procedure: as §1, §2, §3

[4] = In vitro antioxidant capacity: inhibition of DPD oxidation by H2O2; type: biochemical; conditions: 84 U catalase; 30 min exposure to 5 mM H2O2 (not shown)
Procedure: Oxidation of N,N-diethyl-p-phenylenediamine (DPD) by a prooxidant system was used as a general reporter of the amount of ROS generated by that system (Anonymous, 1985; Chahine et al., 1991). Antioxidant capacity of preparations of TRIAD (or of its components) was defined as the ability to inhibit the oxidation of DPD by prooxidants.
To estimate the antioxidant capacity of TRIAD preparations in the prooxidant conditions used with P19 neurons, DPD was added to a final concentration of 32 mM to 200 μl of each prooxidant system described above (see section 2.4) and incubated for the times tested with the cells. At the end of incubation, the amount of oxidized DPD was determined at 560 nm using a spectrophotometer adapted to microscale measurement.
FIG. 5. In vitro antioxidant capacity of CP and TRIAD, in the conditions of H2O2 prooxidant system used with P19 neurons. In this assay, conditions of incubation were as described in the legend to FIG. 4 except that P19 neurons were replaced by N,N-diethyl-p-phenylenediamine (DPD) which absorbs at 560 nm upon oxidation. The experiment was done four times, in triplicate determinations, and results are expressed as means±S.D.

Compound: albumin
- Concentration ensuring good antioxidative activity in vitro [1]: 260 µM

Compound: CC(=O)C(=O)[O-].[Na+] [pyruvate, sodium pyruvate]
- Protection of CP ferroxidase activity against H2O2 (CP ferroxidase activity): inhibited the loss of ferroxidase activity

Compound: catalase
- XAO concentration up to which protection was offered (P19 neurons [2]; 250 μM XA, CP 4 μM, catalase 84 U): up to 50 mU/mL
- Protection to neurons (P19 neurons [2]; 84 U catalase, incubated for 40 min with XAO in the presence of 250 μM XA): about 10%
- Protection to neurons (P19 neurons [3]): 100%
- Inhibition of DPD oxidation by H2O2 [4]: completely inhibit DPD oxidation

— patent publication US6780842B2, “Ceruloplasmin and an antioxidant composition comprising the same and their uses as neuroprotective agent” (Warner-Lambert Company LLC, priority 1999, dated 2004)
